Legend:
[1] = DPPH radical scavenging assay; conditions: n in brackets
Experimental: The direct antioxidant effects of compounds 3 were investigated by studying their radical-scavenging effect on the 2,2-diphenyl-1-picrylhydrazyl free radical (DPPH^•). Thus, a 100 μL volume of a methanol solution of each compound was added to 200 μL of 100 μM methanolic DPPH^•, and the solution was kept in the dark at 37 °C for 30 min in a 96-well microliter plate. After this incubation, the absorption at 490 nm of each solution was measured with a microplate reader in order to quantitate its decrease. A blank reading was also taken to calculate the amount of remaining DPPH^•. The radical-scavenging activity exerted by compounds 3 was determined by comparison with a 10 μL of MeOH-treated blank group. Ascorbic acid, a well-known antioxidant acting as a radical scavenger, was used as reference. All samples were analyzed in triplicate. Percent inhibition of the DPPH^• radical was calculated using the equation shown below, where AbsCtrl is the absorbance of the blank group and Abss is the absorbance of the samples containing compounds 3. For each compound showing a percentage of inhibition above 60%, the IC50 value was determined using a dose–response curve obtained from measurements corresponding to at least six concentrations. %Scavenger=AbsCtrl−AbsS/AbsCtrl×100
The radical scavenging activity of all compounds was first studied by the DPPH assay, which measures the ability of antioxidant compounds to donate a hydrogen atom to the violet 2,2-diphenyl-1-picrylhydrazyl radical and transform it into a nonradical species. Thus, it is generally considered to belong to the hydrogen atom transfer (HAT) category of methods for measurement of antioxidant activity.

[2] = Ferric reducing antioxidant power (FRAP) assay; design: key to FRAP TEAC: trolox equivalents (TEAC), relative to trolox; conditions: for FRAP nmol Fe2+ at 30 µM: 30 µM compound, n in brackets; for FRAP TEAC: 30 µM, relative to trolox
Experimental: A ferric reducing antioxidant power (FRAP) kit assay purchased from Sigma-Aldrich (Madrid, Spain) was employed for the experiments. The antioxidant solutions, FRAP assay buffer solution, FeCl3 solution, and FRAP probe solution were kept in ice during the preparation of the plate. A calibration standard curve was prepared by using the 2 mM ferrous standard solution provided in the FRAP kit assay. Appropriate aliquots of this solution were taken and diluted up to a 200 μL final volume with FRAP buffer. The final ferrous concentrations measured in the well were: 0, 20, 40, 60, 80, and 100 μM. Each concentration value was prepared and measured by triplicate. Stock solutions of compounds 3, as well as reference compounds trolox and ferulic acid, were freshly prepared in 95% ethanol at […]. Aliquots of 10 μL of compounds 3 and the reference compounds were mixed with 19 μL FeCl3 solution and 19 μL FRAP probe solution, and then completed to a final volume of 200 μL with FRAP assay buffer solution. The final concentration of antioxidants and references was 30 μM. Compounds 3, reference compounds, as well as the corresponding blank solutions (one for each compound to be assayed, avoiding the chromogenic FRAP probe), and positive control were thoroughly mixed in vortex for 1–2 min with the reaction chromogenic media, and then were incubated under darkness at 37 °C in the dry bath, and using the device for support well-plates. Each compound to be assayed and the reference antioxidant compounds were prepared and measured by triplicate. The absorbance values were measured at 594 nm after 5 min of reaction and, to assure complete reaction, the absorbance values after 60 min of incubation at 37 °C in the dry bath were also measured. The absorbance values of the sample antioxidant compounds were corrected by subtracting the corresponding absorbance values of the blanks, and then they were introduced in the calibration curve and the ferrous equivalents were determined. The reference antioxidants employed for this assay were trolox and ferulic acid, which were obtained from Sigma-Aldrich (Madrid, Spain). Ultrapure water was obtained from a Milli-Q Direct 8 system (Millipore, Molsheim, France).
In order to achieve a broader insight into the antioxidant profile of our compounds, we also examined them using a single electron transfer (SET)-based method, namely the ferric reducing antioxidant power (FRAP) assay, which measures the ability of an antioxidant to reduce the ferric ion in the TPTZ (2,4,6-tri(2-pyridyl)-1,3,5-triazine)-Fe(III) complex.

[3] = system: SH-SY5Y cells; assay: Neuroprotection against okadaic acid in SH-SY5Y cells (MTT); format: cell-based; conditions: Homo sapiens, SH-SY5Y, 18 h; 1 µM compound; okadaic acid 20 nM; read-out: % Neuroprotection ± SEM at 1 µM (okadaic acid)
Experimental: Neuroprotection studies against tau hyperphosphorylation exerted by okadaic acid (OA) were evaluated using the SH-SY5Y cell line as follows. […] After 18 h, cell viability was addressed by the MTT reduction method. MTT (5 mg/mL, 10 μL/well) was added and incubated for 2 h. Then, the medium was removed and the purple formazan crystals formed by viable cells were dissolved using 100 μL of DMSO. A FluoStar Optima spectrophotometer (BMG Labtech, Ortenberg, Baden-Württemberg, Germany) was used to measure the absorbance at 570 nm.
Okadaic acid is a potent inhibitor of protein phosphatase 2A (PP2A), thereby inducing tau hyperphosphorylation. For this reason, it can be employed as a model of neurodegenerative-disease-connected tau hyperphosphorylation, a well-known feature of Alzheimer’s disease, but present also in other NDDs, collectively known as tauopathies and characterized by the pathological aggregation of hyperphosphorylated tau in neurofibrillary tangles. […] Tau hyperphosphorylation is connected to oxidative stress, which activates p38 and deactivates calcineurin, a phosphatase involved in tau dephosphorylation by increasing RCAN1, its natural repressor [34, 35]. Indeed, hyperphosphorylation and oxidative stress have been proposed to generate a vicious circle that is critical to the advance of neurodegenerative tauopathies.

[4] = system: SH-SY5Y cells; assay: Neuroprotection against rotenone/oligomycin A in SH-SY5Y cells (MTT); format: cell-based; conditions: Homo sapiens, 24 h, 1 µM compound, rotenone 30 µM + oligomycin A 10 µM, read-out: % Neuroprotection ± SEM at 1 µM (rotenone/oligomycin A)
Experimental: To evaluate the compounds for their neuroprotective effect in an oxidative stress model, we selected the rotenone (30 μM) and oligomycin A (10 μM) (R/O) cocktail, which disturbs the flow of electrons in the mitochondrial respiratory chain. Similarly, SH-SY5Y cells were preincubated with compounds 3 at 1 μM for 24 h. Then, they were co-incubated in the presence of R/O for a further 24 h, evaluating cell viability by the MTT reduction method.
Thus, the R/O combination constitutes a good model of oxidative stress and neurodegeneration with a mitochondrial origin, and has been broadly employed to evaluate potential hit compounds for the treatment of neurodegenerative diseases. Furthermore, treatment of laboratory animals with rotenone is known to induce many features associated to Parkinson’s disease, such as selective nigrostriatal dopaminergic degeneration and the appearance of α-synuclein cytoplasmic inclusions, which are associated with oxidative damage.

**Q.** Which IC50 [1] does the source give for `O=C1O[C@H]([C@@H](O)CO)C(O)=C1O` [Ascorbic acid, reference compound] here?
**A.** The IC50 was 16.2 ± 0.7 µM.

**Q.** What does the source list for `COc1cc(/C=C/C(=O)O)ccc1O` [Ferulic acid, reference compound]?
**A.** FRAP nmol Fe2+ at 30 µM [2]: 1.98 ± 0.04 (3) nmol Fe^2+; FRAP TEAC [2]: 0.87

**Q.** For `COc1ccc2[nH]cc(CCNC(C)=O)c2c1` [Melatonin, reference compound], which % neuroprotection against okadaic acid at 1 µM [3] is on record?
**A.** The % neuroprotection against okadaic acid at 1 µM was 67.7 ± 13.9%.

**Q.** And the % neuroprotection against rotenone/oligomycin A toxicity at 1 µM [4]?
**A.** Its % neuroprotection against rotenone/oligomycin A toxicity at 1 µM is 61.4 ± 8.75%.

**Q.** Which results are given for `Cc1c(C)c2c(c(C)c1O)CCC(C)(C(=O)O)O2` (centres unmarked) [Trolox, reference compound]?
**A.** FRAP nmol Fe2+ at 30 µM [2]: 2.28 ± 0.15 (9) nmol Fe^2+; FRAP TEAC [2]: 1.00; IC50 [1]: 11.4 ± 1 µM

Reference: paper PMC8230565, “Bisavenathramide Analogues as Nrf2 Inductors and Neuroprotectors in In Vitro Models of Oxidative Stress and Hyperphosphorylation” (Antioxidants, 2021)
